Source: US10273222B2 (CELGENE QUANTICEL RESEARCH, INC., priority 2013, dated 2019)

Tests used:
Type in all cases: biochemical
Jarid1B = Jarid1B (Homo sapiens (Human), UniProt Q9UGL1); test: Jarid1B in vitro enzyme inhibition assay (TR-FRET)
FBXL10 = FBXL10 (Homo sapiens (Human), UniProt Q8NHM5); test: FBXL10 in vitro enzyme inhibition assay (AlphaScreen)
Experimental: Reaction product was determined quantitatively by AlphaScreen detection after the addition of detection reagents anti-H3K36me1 antibody, AlphaScreen® Streptavidin-coated Donor beads, and AlphaScreen® Protein A Acceptor beads in 50 mM HEPES, pH7.3, 10 mM NaCl, 0.005% Brij35, 5 mM EDTA, 2 mg/ml BSA to final 10 μg/ml beads.
Plates were incubated at room temperature for 40 minutes, followed by addition of 3 μl of 50 μg/ml AlphaScreen® Streptavidin-coated Donor beads and AlphaScreen® Protein A Acceptor beads in 50 mM HEPES, pH7.3, 10 mM NaCl, 0.005% Brij35, 5 mM EDTA, 2 mg/ml BSA. Plates were read by EnVisionMultilabel Reader in AlphaScreen mode after a minimum of 2 hour or up to overnight incubation at room temperature. The AlphaScreen signal for each well was used to determine inhibition constant (IC50).

JMJD2C = JMJD2C (Homo sapiens (Human), UniProt Q9H3R0); test: JMJD2C in vitro enzyme inhibition assay (TR-FRET)
JMJD2C, sequence (Q9H3R0 2-372): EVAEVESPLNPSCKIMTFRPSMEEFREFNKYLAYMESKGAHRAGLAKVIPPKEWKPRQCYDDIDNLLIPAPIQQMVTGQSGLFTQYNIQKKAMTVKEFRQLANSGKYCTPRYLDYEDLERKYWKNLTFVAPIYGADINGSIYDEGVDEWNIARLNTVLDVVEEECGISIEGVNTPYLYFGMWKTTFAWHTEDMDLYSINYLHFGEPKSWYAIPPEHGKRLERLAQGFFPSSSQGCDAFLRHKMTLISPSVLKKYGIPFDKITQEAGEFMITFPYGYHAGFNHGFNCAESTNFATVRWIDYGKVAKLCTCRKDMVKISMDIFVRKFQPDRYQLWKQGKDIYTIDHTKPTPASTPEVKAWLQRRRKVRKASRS
Experimental: This assay determines the ability of a test compound to inhibit Jarid1A, Jarid1B, JMJD2C, and JMJD2A demethylase activity. […] Baculovirus expressed JMJD2C (GenBank Accession #BC143571, AA 2-372) was purchased from BPS Bioscience (Cat#50105).
The ability of test compounds to inhibit the activity of JMJD2C was determined in 384-well plate format under the following reaction conditions: 0.3 nM JMJD2C, 300 nM H3K9me3-biotin labeled peptide (Anaspec cat #64360), 2 μM alpha-ketoglutaric acid in assay buffer of 50 mM HEPES, pH7.3, 0.005% Brij35, 0.5 mM TCEP, 0.2 mg/ml BSA, 50 μM sodium L-ascorbate, and 2 μM ammonium iron(II) sulfate. Reaction product was determined quantitatively by TR-FRET after the addition of detection reagent Phycolink Streptavidin-allophycocyanin (Prozyme) and Europium-anti-di-methylated histone H3 lysine 9 (H3K9me2) antibody (PerkinElmer) in the presence of 5 mM EDTA in LANCE detection buffer (PerkinElmer) at a final concentration of 50 nM and 1 nM, respectively.
The assay reaction was initiated by the following: 2 μl of the mixture of 900 nM H3K9me3-biotin labeled peptide and 6 μM alpha-ketoglutaric acid with 2 μl of 11-point serial diluted inhibitor in 3% DMSO were added to each well of the plate, followed by the addition of 2 μl of 0.9 nM JMJD2C to initiate the reaction. The reaction mixture was incubated at room temperature for 30 minutes, and terminated by the addition of 6 μl of 5 mM EDTA in LANCE detection buffer containing 100 nM Phycolink Streptavidin-allophycocyanin and 2 nM Europium-anti-H3K9me2 antibody. Plates were read by EnVisionMultilabel Reader in TR-FRET mode (excitation at 320 nm, emission at 615 nm and 665 nm) after 1 hour incubation at room temperature. A ratio was calculated (665/615) for each well and fitted to determine inhibition constant (IC50).

Jarid1A = Jarid1A (Homo sapiens (Human), UniProt P29375); test: Jarid1A in vitro enzyme inhibition assay (TR-FRET)
Jarid1A, sequence (P29375 1-1090): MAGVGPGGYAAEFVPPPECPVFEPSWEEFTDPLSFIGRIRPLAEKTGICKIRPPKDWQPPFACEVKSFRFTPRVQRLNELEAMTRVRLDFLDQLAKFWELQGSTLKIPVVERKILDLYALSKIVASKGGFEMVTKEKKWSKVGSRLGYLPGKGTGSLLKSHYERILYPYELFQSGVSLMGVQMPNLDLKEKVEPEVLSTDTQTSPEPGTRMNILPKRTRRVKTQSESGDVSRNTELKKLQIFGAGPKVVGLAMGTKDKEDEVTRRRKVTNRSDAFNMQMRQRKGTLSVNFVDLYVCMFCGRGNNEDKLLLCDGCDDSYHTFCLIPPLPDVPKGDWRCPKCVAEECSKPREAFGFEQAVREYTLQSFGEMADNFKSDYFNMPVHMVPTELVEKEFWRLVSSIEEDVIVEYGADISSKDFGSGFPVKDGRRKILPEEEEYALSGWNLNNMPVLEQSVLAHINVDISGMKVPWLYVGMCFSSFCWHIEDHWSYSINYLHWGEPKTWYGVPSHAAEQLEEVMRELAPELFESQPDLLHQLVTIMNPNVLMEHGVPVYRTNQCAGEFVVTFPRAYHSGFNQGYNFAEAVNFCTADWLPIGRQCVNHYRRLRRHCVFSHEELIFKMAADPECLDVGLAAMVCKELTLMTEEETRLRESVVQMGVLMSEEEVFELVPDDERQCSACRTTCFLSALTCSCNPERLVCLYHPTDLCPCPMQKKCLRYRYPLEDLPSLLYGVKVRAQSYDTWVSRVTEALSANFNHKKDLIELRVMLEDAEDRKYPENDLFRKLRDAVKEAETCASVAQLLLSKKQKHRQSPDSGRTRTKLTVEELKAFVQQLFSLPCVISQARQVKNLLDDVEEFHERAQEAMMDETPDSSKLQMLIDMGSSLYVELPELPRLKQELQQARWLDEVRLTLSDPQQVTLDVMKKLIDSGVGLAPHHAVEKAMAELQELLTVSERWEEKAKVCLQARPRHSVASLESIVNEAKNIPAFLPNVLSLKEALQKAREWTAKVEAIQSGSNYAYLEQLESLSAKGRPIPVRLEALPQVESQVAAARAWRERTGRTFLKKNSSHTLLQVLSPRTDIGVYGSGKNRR
From the text: The enzymatic assay of Jarid1A activity is based upon Time Resolved-Fluorescence Resonance Energy Transfer (TR-FRET) detection.

Jarid1B, sequence (Q9UGL1 2-751): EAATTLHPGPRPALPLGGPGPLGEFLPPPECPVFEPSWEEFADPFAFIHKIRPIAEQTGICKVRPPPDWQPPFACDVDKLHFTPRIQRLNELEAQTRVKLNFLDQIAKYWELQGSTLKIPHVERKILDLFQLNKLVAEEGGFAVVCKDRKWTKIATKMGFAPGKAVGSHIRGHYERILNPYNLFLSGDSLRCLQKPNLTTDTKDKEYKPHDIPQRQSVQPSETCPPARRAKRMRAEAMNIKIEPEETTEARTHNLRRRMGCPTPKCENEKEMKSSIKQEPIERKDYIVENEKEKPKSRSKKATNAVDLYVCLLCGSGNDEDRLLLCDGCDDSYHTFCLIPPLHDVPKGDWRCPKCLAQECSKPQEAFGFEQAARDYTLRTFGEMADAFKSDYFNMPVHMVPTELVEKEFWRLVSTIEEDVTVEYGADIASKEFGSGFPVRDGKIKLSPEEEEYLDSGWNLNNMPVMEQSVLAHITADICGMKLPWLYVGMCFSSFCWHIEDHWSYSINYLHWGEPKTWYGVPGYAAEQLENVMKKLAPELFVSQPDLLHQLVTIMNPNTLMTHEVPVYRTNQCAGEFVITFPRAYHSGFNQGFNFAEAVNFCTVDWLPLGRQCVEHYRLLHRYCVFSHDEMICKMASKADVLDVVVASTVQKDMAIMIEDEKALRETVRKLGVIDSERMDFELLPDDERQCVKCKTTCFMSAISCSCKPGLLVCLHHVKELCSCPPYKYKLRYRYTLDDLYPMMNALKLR
FBXL10, sequence (Q8NHM5 1-650): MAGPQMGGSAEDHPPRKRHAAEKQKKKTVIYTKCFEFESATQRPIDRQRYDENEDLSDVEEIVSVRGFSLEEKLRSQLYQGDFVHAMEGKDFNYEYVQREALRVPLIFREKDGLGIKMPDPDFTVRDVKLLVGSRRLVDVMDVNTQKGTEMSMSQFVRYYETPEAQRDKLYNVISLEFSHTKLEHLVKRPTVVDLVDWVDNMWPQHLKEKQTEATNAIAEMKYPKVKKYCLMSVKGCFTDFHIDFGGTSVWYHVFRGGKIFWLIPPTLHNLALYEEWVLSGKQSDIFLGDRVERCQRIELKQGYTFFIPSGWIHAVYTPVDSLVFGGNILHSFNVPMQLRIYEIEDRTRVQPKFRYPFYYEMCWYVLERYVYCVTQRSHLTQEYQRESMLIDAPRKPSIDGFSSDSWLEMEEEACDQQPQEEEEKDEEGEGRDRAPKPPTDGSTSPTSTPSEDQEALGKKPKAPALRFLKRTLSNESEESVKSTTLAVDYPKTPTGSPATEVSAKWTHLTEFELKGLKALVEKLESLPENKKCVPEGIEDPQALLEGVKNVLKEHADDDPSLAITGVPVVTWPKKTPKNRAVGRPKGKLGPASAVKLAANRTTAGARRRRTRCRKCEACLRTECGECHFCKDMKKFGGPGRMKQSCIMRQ

| SMILES | IC50 (Jarid1B) [nM] | IC50 (FBXL10) [nM] | IC50 (JMJD2C) [nM] | IC50 (Jarid1A) [nM] |
| --- | --- | --- | --- | --- |
| CCOc1cc(Cl)ccc1-c1c(-c2cc(C(=O)O)ccn2)ncn1C [Example 32, 2-[5-(4-chloro-2-ethoxyphenyl)-1-methyl-1H-imidazol-4-yl]pyridine-4-carboxylic acid] | ≤ 100 | 100 to 1000 | 1000 to 10000 | ≤ 100 |
| Cn1cnc(-c2cc(C(=O)O)ccn2)c1-c1ccc(Cl)cc1Cl [Example 33, 2-[5-(2,4-dichlorophenyl)-1-methyl-1H-imidazol-4-yl]pyridine-4-carboxylic acid] | ≤ 100 | ≤ 100 | 100 to 1000 | ≤ 100 |
| COCCCn1cnc(-c2cc(C(=O)O)ccn2)c1-c1ccc(Cl)c(F)c1 [Example 36, 2-[5-(4-chloro-3-fluorophenyl)-1-(3-methoxypropyl)-1H-imidazol-4-yl]pyridine-4-carboxylic acid] | ≤ 100 | ≤ 100 | 1000 to 10000 | ≤ 100 |
| COCCn1cnc(-c2cc(C(=O)O)ccn2)c1-c1ccc(Cl)c(F)c1 [Example 37, 2-[5-(4-chloro-3-fluorophenyl)-1-(2-methoxyethyl)-1H-imidazol-4-yl]pyridine-4-carboxylic acid] | ≤ 100 | ≤ 100 | 1000 to 10000 | ≤ 100 |
| CN(C)CCn1cnc(-c2cc(C(=O)O)ccn2)c1-c1ccc(Cl)c(F)c1 [Example 39, 2-{5-(4-chloro-3-fluorophenyl)-1-[2-(dimethylamino)ethyl]-1H-imidazol-4-yl}pyridine-4-carboxylic acid] | ≤ 100 | ≤ 100 | ≤ 100 | ≤ 100 |
| O=C(O)c1ccnc(-c2cn(CCn3cccn3)cn2)c1 [Example 46, 2-{1-[2-(1H-pyrazol-1-yl)ethyl]-1H-imidazol-4-yl}pyridine-4-carboxylic acid] | 100 to 1000 | 100 to 1000 | 1000 to 10000 | 100 to 1000 |
| O=C(O)c1ccnc(-c2cn(Cc3ccccn3)cn2)c1 [Example 47, 2-[1-(pyridin-2-ylmethyl)-1H-imidazol-4-yl]pyridine-4-carboxylic acid] | ≤ 100 | ≤ 100 | 100 to 1000 | ≤ 100 |
| CN1CCC(n2cnc(-c3cc(C(=O)O)ccn3)c2)CC1 [Example 49, 2-[1-(1-methylpiperidin-4-yl)-1H-imidazol-4-yl]pyridine-4-carboxylic acid] | ≤ 100 | 100 to 1000 | ≤ 100 | ≤ 100 |
| O=C(O)c1ccnc(-c2cn(CC3CCCO3)cn2)c1 (stereo not drawn) [Example 51, 2-[1-(tetrahydrofuran-2-ylmethyl)-1H-imidazol-4-yl]pyridine-4-carboxylic acid] | ≤ 100 | ≤ 100 | 100 to 1000 | ≤ 100 |
| O=C(O)c1ccnc(-c2cn(C3CCNC3)cn2)c1 (stereo not drawn) [Example 52, 2-[1-(pyrrolidin-3-yl)-1H-imidazol-4-yl]pyridine-4-carboxylic acid] | ≤ 100 | 100 to 1000 | ≤ 100 | ≤ 100 |
| O=C(O)c1ccnc(-c2cn(CC3CCCN3)cn2)c1 (stereo not drawn) [Example 53, 2-[1-(pyrrolidin-2-ylmethyl)-1H-imidazol-4-yl]pyridine-4-carboxylic acid] | ≤ 100 | 100 to 1000 | ≤ 100 | ≤ 100 |
| CN1CCOC(Cn2cnc(-c3cc(C(=O)O)ccn3)c2)C1 (stereo not drawn) [Example 54, 2-{1-[(4-methylmorpholin-2-yl)methyl]-1H-imidazol-4-yl}pyridine-4-carboxylic acid] | ≤ 100 | ≤ 100 | ≤ 100 | ≤ 100 |
| CN1CCCC(Cn2cnc(-c3cc(C(=O)O)ccn3)c2)C1 (stereo not drawn) [Example 55, 2-{1-[(1-methylpiperidin-3-yl)methyl]-1H-imidazol-4-yl}pyridine-4-carboxylic acid] | ≤ 100 | ≤ 100 | ≤ 100 | ≤ 100 |
| CN(CCn1cnc(-c2cc(C(=O)O)ccn2)c1)Cc1ccccc1 [Example 57, 2-(1-{2-[benzyl(methyl)amino]ethyl}-1H-imidazol-4-yl)pyridine-4-carboxylic acid] | ≤ 100 | ≤ 100 | ≤ 100 | ≤ 100 |
| O=C(O)c1ccnc(-c2cn(CCNCC3CC(F)(F)C3)cn2)c1 [Example 73, 2-[1-[2-[(3,3-difluorocyclobutyl)methylamino]ethyl]imidazol-4-yl]pyridine-4-carboxylic acid] | ≤ 100 | ≤ 100 | ≤ 100 | ≤ 100 |
| O=C(O)c1ccnc(-c2cn(CCNCc3ccc(F)cc3)cn2)c1 [Example 74, 2-[1-[2-[(4-fluorophenyl)methylamino]ethyl]imidazol-4-yl]pyridine-4-carboxylic acid] | ≤ 100 | ≤ 100 | ≤ 100 | ≤ 100 |
| O=C(O)c1ccnc(-c2cn(CCN3Cc4ccccc4C3)cn2)c1 [Example 76, 2-[1-[2-(1,3-dihydroisoindol-2-yl)ethyl]imidazol-4-yl]pyridine-4-carboxylic acid] | ≤ 100 | ≤ 100 | ≤ 100 | ≤ 100 |
| COc1ccccc1CNCCn1cnc(-c2cc(C(=O)O)ccn2)c1 [Example 77, 2-[1-[2-[(2-methoxyphenyl)methylamino]ethyl]imidazol-4-yl]pyridine-4-carboxylic acid] | ≤ 100 | ≤ 100 | ≤ 100 | ≤ 100 |
| O=C(O)c1ccnc(-c2cn(CCNCc3ccccc3Cl)cn2)c1 [Example 78, 2-[1-[2-[(2-chlorophenyl)methylamino]ethyl]imidazol-4-yl]pyridine-4-carboxylic acid] | ≤ 100 | ≤ 100 | ≤ 100 | ≤ 100 |
| O=C(O)c1ccnc(-c2cn(CCN3Cc4ccc(F)cc4C3)cn2)c1 [Example 79, 2-[1-[2-(5-fluoro-1,3-dihydroisoindol-2-yl)ethyl]imidazol-4-yl]pyridine-4-carboxylic acid] | ≤ 100 | ≤ 100 | ≤ 100 | ≤ 100 |
| CCc1ccccc1CNCCn1cnc(-c2cc(C(=O)O)ccn2)c1 [Example 80, 2-[1-[2-[(2-ethylphenyl)methylamino]ethyl]imidazol-4-yl]pyridine-4-carboxylic acid] | ≤ 100 | ≤ 100 | ≤ 100 | ≤ 100 |
| O=C(O)c1ccnc(-c2cn(CCN3Cc4cccc(Cl)c4C3)cn2)c1 [Example 81, 2-[1-[2-(4-chloro-1,3-dihydroisoindol-2-yl)ethyl]imidazol-4-yl]pyridine-4-carboxylic acid] | ≤ 100 | ≤ 100 | ≤ 100 | ≤ 100 |
| O=C(O)c1ccnc(-c2cn(CCN3Cc4ccc(Cl)cc4C3)cn2)c1 [Example 82, 2-[1-[2-(5-chloro-1,3-dihydroisoindol-2-yl)ethyl]imidazol-4-yl]pyridine-4-carboxylic acid] | ≤ 100 | ≤ 100 | ≤ 100 | ≤ 100 |
| N#Cc1cccc2c1CN(CCn1cnc(-c3cc(C(=O)O)ccn3)c1)C2 [Example 83, 2-[1-[2-(4-cyano-1,3-dihydroisoindol-2-yl)ethyl]imidazol-4-yl]pyridine-4-carboxylic acid] | ≤ 100 | ≤ 100 | ≤ 100 | ≤ 100 |
